Tests used:
Assay in all cases: relative viability (nuclei count vs DMSO), 5 days (fraction); higher = more cells survive
NVP-TAE684 + Alpelisib = compound: COc1cc(N2CCC(N3CCN(C)CC3)CC2)ccc1Nc1ncc(Cl)c(Nc2ccccc2S(=O)(=O)C(C)C)n1 [NVP-TAE684] + Cc1nc(NC(=O)N2CCC[C@H]2C(N)=O)sc1-c1ccnc(C(C)(C)C(F)(F)F)c1 [Alpelisib] (partner 2 µM)
Outline: (§1)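 Lung cancer cell lines were seeded in 1536-well plates and dosed by pin tool the next day, with either a single drug or a fixed anchor-drug dose combined with five library-drug doses (not always all listed) spaced in √10 steps. Five days later, one step fixed the cells and stained their nuclei (final 0.05% Triton X-100, 1% formaldehyde, 1 ug/ml Hoechst), and nuclei were counted on 4× images. Relative viability is the nuclei count in treated wells divided by the count in vehicle wells, and each value is the median of duplicate plates.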

NVP-TAE684 + Luminespib = compound: COc1cc(N2CCC(N3CCN(C)CC3)CC2)ccc1Nc1ncc(Cl)c(Nc2ccccc2S(=O)(=O)C(C)C)n1 [NVP-TAE684] + CCNC(=O)c1noc(-c2cc(C(C)C)c(O)cc2O)c1-c1ccc(CN2CCOCC2)cc1 [Luminespib] (partner 0.01 µM)
Outline: as §1

NVP-TAE684 + Foretinib = compound: COc1cc(N2CCC(N3CCN(C)CC3)CC2)ccc1Nc1ncc(Cl)c(Nc2ccccc2S(=O)(=O)C(C)C)n1 [NVP-TAE684] + COc1cc2c(Oc3ccc(NC(=O)C4(C(=O)Nc5ccc(F)cc5)CC4)cc3F)ccnc2cc1OCCCN1CCOCC1 [Foretinib] (partner 0.25 µM)
Outline: as §1

NVP-TAE684 + Pictilisib = compound: COc1cc(N2CCC(N3CCN(C)CC3)CC2)ccc1Nc1ncc(Cl)c(Nc2ccccc2S(=O)(=O)C(C)C)n1 [NVP-TAE684] + CS(=O)(=O)N1CCN(Cc2cc3nc(-c4cccc5[nH]ncc45)nc(N4CCOCC4)c3s2)CC1 [Pictilisib] (partner 1 µM)
Outline: as §1

NVP-TAE684 + Navitoclax = compound: COc1cc(N2CCC(N3CCN(C)CC3)CC2)ccc1Nc1ncc(Cl)c(Nc2ccccc2S(=O)(=O)C(C)C)n1 [NVP-TAE684] + CC1(C)CCC(c2ccc(Cl)cc2)=C(CN2CCN(c3ccc(C(=O)NS(=O)(=O)c4ccc(N[C@H](CCN5CCOCC5)CSc5ccccc5)c(S(=O)(=O)C(F)(F)F)c4)cc3)CC2)C1 [Navitoclax] (partner 0.5 µM)
Outline: as §1

CUDC-101 + Navitoclax = compound: C#Cc1cccc(Nc2ncnc3cc(OC)c(OCCCCCCC(=O)NO)cc23)c1 [CUDC-101] + CC1(C)CCC(c2ccc(Cl)cc2)=C(CN2CCN(c3ccc(C(=O)NS(=O)(=O)c4ccc(N[C@H](CCN5CCOCC5)CSc5ccccc5)c(S(=O)(=O)C(F)(F)F)c4)cc3)CC2)C1 [Navitoclax] (partner 0.5 µM)
Outline: as §1

UMC-11
relative viability (NVP-TAE684 + Alpelisib; first compound 0.2 µM): 0.961 | relative viability (NVP-TAE684 + Alpelisib; first compound 0.6325 µM): 0.915 | relative viability (NVP-TAE684 + Alpelisib; first compound 2 µM): 0.213 | relative viability (NVP-TAE684 + Luminespib; first compound 0.2 µM): 0.879 | relative viability (NVP-TAE684 + Luminespib; first compound 0.6325 µM): 0.946 | relative viability (NVP-TAE684 + Luminespib; first compound 2 µM): 0.297 | relative viability (NVP-TAE684 + Foretinib; first compound 0.2 µM): 1.03 | relative viability (NVP-TAE684 + Foretinib; first compound 0.6325 µM): 0.926 | relative viability (NVP-TAE684 + Foretinib; first compound 2 µM): 0.334 | relative viability (NVP-TAE684 + Pictilisib; first compound 0.2 µM): 0.979 | relative viability (NVP-TAE684 + Pictilisib; first compound 2 µM): 0.586 | relative viability (NVP-TAE684 + Navitoclax; first compound 0.2 µM): 0.331 | relative viability (NVP-TAE684 + Navitoclax; first compound 0.6325 µM): 0.289 | relative viability (NVP-TAE684 + Navitoclax; first compound 2 µM): 0.162 | relative viability (CUDC-101 + Navitoclax; first compound 0.01 µM): 0.313 | relative viability (CUDC-101 + Navitoclax; first compound 0.03162 µM): 0.302 | relative viability (CUDC-101 + Navitoclax; first compound 0.1 µM): 0.257 | relative viability (CUDC-101 + Navitoclax; first compound 0.3162 µM): 0.225 | relative viability (CUDC-101 + Navitoclax; first compound 1 µM): 0.0766

Source: the supplement of paper PMC10307832
